Measured values from DBAASP.
≈ marks a conversion by molar mass, not a printed value. Where “and” joins values, the source holds several entries; their conditions need not be identical. Equal values may be shown once.

Columns and labels:
Assay in all cases: ≥ marks a high value that may be exact or a test limit, other limits are often not marked, values filed in µg/mL are converted to µM
[1] = test system: Staphylococcus aureus ATCC 25923
Escherichia coli C25 = test system: Escherichia coli C25
[2] = test system: Bacillus subtilis KCTC 2217
[3] = test system: Acinetobacter baumannii KCTC 2508
[4] = test system: Pseudomonas aeruginosa ATCC 27853
[5] = test system: Pseudomonas aeruginosa CCARM 2095
[6] = test system: Staphylococcus epidermidis KCTC 1917
[7] = test system: Bacillus subtilis KCTC 3068
[8] = test system: Pseudomonas aeruginosa KCTC 1637
[9] = test system: Enterococcus faecium ATCC 51559
[10] = test system: Staphylococcus aureus CCARM 3089
[11] = test system: Salmonella typhimurium KCTC 1926
[12] = test system: Escherichia coli KCTC 1682
[13] = test system: Staphylococcus aureus CCARM 3095
[14] = test system: Staphylococcus aureus CCARM 3090
[15] = test system: Staphylococcus aureus KCTC 1621
[16] = test system: Pseudomonas aeruginosa ATCC 9027
Bacillus megaterium Bm11 = test system: Bacillus megaterium Bm11
[17] = test system: Escherichia coli ATCC 25922
[18] = test system: Staphylococcus aureus USA 300
[19] = test system: Enterococcus faecalis ATCC 19433
[20] = test system: Enterobacter cloacae ATCC 49141
[21] = test system: Streptococcus pyogenes ATCC 49399
[22] = test system: Staphylococcus aureus USA 100
[23] = test system: Pseudomonas aeruginosa Ps4
[24] = test system: Staphylococcus aureus ATCC 6538P
[25] = test system: Pseudomonas aeruginosa PAO1
[26] = test system: Candida albicans ATCC 90028
[27] = test system: Klebsiella aerogenes ATCC 35029
[28] = test system: Staphylococcus aureus ATCC 43300
[29] = test system: Staphylococcus epidermidis ATCC 12228
[30] = test system: Staphylococcus aureus ATCC 29213
[31] = test system: Salmonella enterica subsp. enterica serovar Pullorum C79-13
Escherichia coli UB1005 = test system: Escherichia coli UB1005
[32] = test system: Salmonella typhimurium ATCC 7731
[33] = test system: Bacillus subtilis CMCC 63501

Q: Which results are given for CC[C@H](C)[C@H](NC(=O)CNC(=O)[C@H](CCCN=C(N)N)NC(=O)[C@H](Cc1ccc(O)cc1)NC(=O)[C@@H](NC(=O)[C@H](CCCN=C(N)N)NC(=O)[C@H](Cc1ccccc1)NC(=O)[C@H](Cc1c[nH]c2ccccc12)NC(=O)[C@@H](N)CCCCN)C(C)C)C(=O)N[C@@H](Cc1ccc(O)cc1)C(N)=O [KWFRVYRGIY]?
A: MIC [1]: 180 µM (≈ 250 µg/mL); MIC (Escherichia coli C25): ≥ 720 µM

Q: With CC(C)C[C@H](NC(=O)[C@H](CC(C)C)NC(=O)[C@@H]1CCCN1C(=O)[C@H](CCCCN)NC(=O)[C@H](CCCCN)NC(=O)[C@H](CC(C)C)NC(=O)[C@H](CC(C)C)NC(=O)[C@H](CCCCN)NC(=O)[C@H](CCCCN)NC(=O)[C@H](Cc1c[nH]c2ccccc12)NC(=O)[C@@H](N)CCCCN)C(=O)N[C@@H](CCCCN)C(N)=O [KWKKLLKKPLLK] as the compound, how does the MIC [2] read?
A: Its MIC is 6.25 µM (≈ 9.51 µg/mL).

Q: What about the MIC [3] of the same compound?
A: Its MIC is 25 µM (≈ 38.1 µg/mL).

Q: What about the MIC [4] of the same compound?
A: The MIC was over 25 µM.

Q: CC[C@H](C)[C@H](NC(=O)[C@@H](NC(=O)[C@H](Cc1cnc[nH]1)NC(=O)[C@H](CCCN=C(N)N)NC(=O)[C@H](C)NC(=O)[C@H](CCCN=C(N)N)NC(=O)[C@H](CC(C)C)NC(=O)[C@H](CO)NC(=O)[C@H](C)NC(=O)[C@H](CC(C)C)NC(=O)[C@@H](N)CC(N)=O)[C@@H](C)O)C(=O)N1CCC[C@H]1C(=O)N[C@@H](CCC(N)=O)C(=O)N[C@@H](CCCN=C(N)N)C(=O)N[C@@H](CCCCN)C(=O)N[C@@H](Cc1ccccc1)C(=O)NCC(=O)N[C@@H](CCCN=C(N)N)C(=O)N[C@@H](CCCN=C(N)N)C(=O)O [NLASLRARHTIPQRKFGRR] was tested. Which MIC [5] did it give?
A: Its MIC is 25 µM (≈ 56.9 µg/mL).

Q: And the MIC [6]?
A: Its MIC is 6.3 µM (≈ 14.3 µg/mL).

Q: And the MIC [7]?
A: The MIC was 6.3 µM (≈ 14.3 µg/mL).

Q: And the MIC [8]?
A: Its MIC is 6.3 µM (≈ 14.3 µg/mL).

Q: And the MIC [9]?
A: Its MIC is at least 50 µM.

Q: And the MIC [10]?
A: The MIC was 12.5 µM (≈ 28.5 µg/mL).

Q: What about the MIC [11] of the same compound?
A: The MIC was 6.3 µM (≈ 14.3 µg/mL).

Q: What about the MIC [12] of the same compound?
A: The MIC was 6.3 µM (≈ 14.3 µg/mL).

Q: What about the MIC [13] of the same compound?
A: The MIC was 25 µM (≈ 56.9 µg/mL).

Q: And the MIC [14]?
A: Its MIC is 25 µM (≈ 56.9 µg/mL).

Q: And the MIC [15]?
A: Its MIC is 12.5 µM (≈ 28.5 µg/mL).

Q: How did the MIC [16] turn out when CC[C@H](C)[C@H](NC(=O)[C@H](CCCN=C(N)N)NC(=O)[C@@H](NC(=O)[C@H](CCCN=C(N)N)NC(=O)[C@H](Cc1c[nH]c2ccccc12)NC(=O)[C@H](Cc1ccccc1)NC(=O)[C@@H]1CCCN1)[C@@H](C)CC)C(=O)N[C@@H](CCCN=C(N)N)C(=O)N[C@@H](CCCN=C(N)N)C(N)=O [PFWRIRIRR] was run?
A: Its MIC is 100 µM (≈ 130 µg/mL).

Q: What about the MIC (Bacillus megaterium Bm11) of the same compound?
A: Its MIC is 1.25 µM (≈ 1.62 µg/mL).

Q: And the MIC [17]?
A: The MIC was 8.71 µM and 10 µM.

Q: What about the MIC [18] of the same compound?
A: The MIC was 12.5 µM (≈ 16.2 µg/mL).

Q: What about the MIC [19] of the same compound?
A: Its MIC is at least 40 µM.

Q: What about the MIC [20] of the same compound?
A: Its MIC is at least 40 µM.

Q: And the MIC [21]?
A: Its MIC is 2.5 µM (≈ 3.25 µg/mL).

Q: What about the MIC [22] of the same compound?
A: The MIC was 12.5 µM (≈ 16.2 µg/mL).

Q: And the MIC [23]?
A: The MIC was at least 48.1 µM.

Q: What about the MIC [24] of the same compound?
A: Its MIC is at least 40 µM.

Q: And the MIC [25]?
A: Its MIC is 24.6 µM (≈ 32 µg/mL).

Q: What about the MIC [26] of the same compound?
A: The MIC was at least 100 µM.

Q: And the MIC [27]?
A: The MIC was at least 40 µM.

Q: What about the MIC [4] of the same compound?
A: Its MIC is 40 µM (≈ 51.9 µg/mL).

Q: Which MIC [28] does the source give for CC(C)C[C@H](NC(=O)[C@H](CCCCN)NC(=O)[C@H](CCCCN)NC(=O)[C@H](C)NC(=O)[C@@H](NC(=O)[C@H](CCCCN)NC(=O)[C@H](CO)NC(=O)[C@H](CC(C)C)NC(=O)[C@H](Cc1c[nH]c2ccccc12)NC(=O)[C@H](CC(C)C)NC(=O)[C@H](CCCCN)NC(=O)[C@H](CCCCN)NC(=O)[C@H](C)NC(=O)[C@@H](NC(=O)[C@H](CCCCN)NC(=O)[C@H](CO)NC(=O)[C@H](CC(C)C)NC(=O)[C@H](Cc1c[nH]c2ccccc12)NC(=O)[C@H](CC(C)C)NC(=O)[C@H](CCCCN)NC(=O)[C@H](CCCCN)NC(=O)[C@H](C)NC(=O)[C@@H](NC(=O)[C@H](CCCCN)NC(=O)[C@H](CO)NC(=O)[C@H](CC(C)C)NC(=O)[C@@H](N)Cc1c[nH]c2ccccc12)[C@@H](C)O)[C@@H](C)O)[C@@H](C)O)C(N)=O [WLSKTAKKLWLSKTAKKLWLSKTAKKL] here?
A: The MIC was 32 µM (≈ 102 µg/mL).

Q: What about the MIC [29] of the same compound?
A: Its MIC is 32 µM (≈ 102 µg/mL).

Q: What about the MIC [30] of the same compound?
A: The MIC was 32 µM (≈ 102 µg/mL).

Q: And the MIC [4]?
A: The MIC was 2 µM (≈ 6.37 µg/mL).

Q: And the MIC [31]?
A: Its MIC is 2 µM (≈ 6.37 µg/mL).

Q: What about the MIC (Escherichia coli UB1005) of the same compound?
A: Its MIC is 2 µM (≈ 6.37 µg/mL).

Q: And the MIC [32]?
A: Its MIC is 8 µM (≈ 25.5 µg/mL).

Q: And the MIC [33]?
A: Its MIC is 8 µM (≈ 25.5 µg/mL).
